US7659278B2, “Use of low molecular weight compounds for preparing a medicament useful in treating mutant p53 mediated diseases” (Aprea AB, priority 2002, dated 2010)

Key:
[1] = system: MDM2 and p21 in SW480 colon carcinoma cells (endogenous His-273 mutant p53); assay: Western blot of MDM2 and p21, SW480; type: cell-based, human
Method: The expression of proteins was analyzed using Western blot. […] FIG. 10C pictures induction of p53 target genes in PRIMA-1-treated SW480 colon carcinoma cells carrying endogenous His-273/Ser-309 mutant p53.

[2] = system: p53-responsive EGFP reporter in SKOV-His-175 cells; assay: p53-responsive EGFP reporter in SKOV-His-175 cells; type: cell-based, human
Method: FIG. 9B, mutant p53-dependent activation of the wild-type p53-responsive EGFP reporter in PRIMA-1-treated SKOV-His-175 cells. […] FIG. 9C, MIRA-1 induced wild-type p53-responsive EGFP reporter in SKOV-His-175 cells.
The p53-EGFP plasmid contains 13 synthetic p53 consensus DNA binding sites in front of the EGFP coding sequence. Transient transfections experiments were performed with Lipofectamine 2000 according to the manufacturer's recommendations (Invitrogemm Life Technologies, Groningen, The Netherlands).
We also transiently transfected SKOV-His-175 cells with a p53-responsive EGFP reporter.

[3] = system: KRC/Y renal carcinoma cells (Phe-176 mutant p53); assay: Apoptosis induction by FACS, KRC/Y cells; type: cell-based, human; conditions: MIRA-1 50 μM, PRIMA-1 75 μM
Method: The percentage of apoptotic cells was detected by FACS analysis as it was described in FIG. 3A.
(§1) Cells were placed on 12-well plate at a density of 30000/cm^2 and treated with compounds. After 48 h incubation cells were harvested by trypsinization, fixed with 70% ethanol, treated with RNase A (0.25 mg/ml) and stained with propidium iodide (0.02 mg/ml). Samples were analyzed on a Becton Dickinson FACScan. Data were analyzed by the CellQuest software, version 3.2.1.
Thus, it appears that the defect caused by substitution of the Cys residue at position 176 is irreversible. The substitution of this Cys residue abolishes the binding of a Zn atom which holds together the DNA-binding loops of the p53 core domain. Therefore, the unfolding of this mutant p53 protein is probably too extensive to be restored.

[4] = system: endogenous mutant p53 proteins; type: biochemical, human; conditions: cell extracts of human tumor cell lines, band shift
Method: PAb421 antibody was added to all reaction mixtures. […] Monoclonal antibody PAb421 was added to the reaction mixtures in lanes 2-8; PAb1801 was added to the reaction mixtures in lanes 9-15.
The GST-p53 proteins were prepared as described (Selivanova et al., 1997). Band shift assays were performed in binding buffer containing 100 mM HEPES pH 7.5, 50 mM KCl, 1 mg/ml BSA, 0.1% Triton X-100, 2 mM MgC12 and 1 mM DTT essentially as in (Selivanova et al., 1996).

Saos-2-His-273 cells [5] = assay: Apoptosis induction by FACS (sub-G1, propidium iodide), Saos-2-His-273; type: cell-based, human; conditions: for time to apoptosis induction after treatment: data not shown; for p53 dependence of apoptosis induction: presence or absence of doxycyclin
Method: Induction of apoptosis was determined by FACS analysis of ethanol fixed cells stained with propidium iodide (PI) as percentage of a sub-G1 population. […] The percentage of dead cells in non-treated cultures and in controls treated with caspase inhibitors only was subtracted. […] Hoechst staining was used to stain cell nuclei.
as §1
Induction of cell death was determined by FACS analysis of ethanol-fixed cells stained with propidium iodide (PI) as percentage of sub-G1 population.

[6] = system: human tumour cell lines with different p53 status (p53 null, wild type p53, mutant p53); assay: WST-1 growth suppression in cell lines with different p53 status; type: cell-based; conditions: mutant p53 vs p53 null and wild type p53 cell lines
Method: The degree of WST-1 reduction, which reflects a number of living cells, was measured by microplate reader at λ490 nm according to manufacturer (Roche). The growth suppression was calculated as a difference in absorbance at λ 490 nm between untreated and treated cells and expressed in a percent from untreated control. Growth suppression=100%×(control absorbance−treated absorbance)/control absorbance. […] The experimental set up was as described in FIG. 2A.
The human cell lines were as follows. p53 null: Saos-2 osteosarcoma, K562 acute myeloid leukemia, and HL60 promyelocytic leukemia Wild type p53 expressing cells: NHF normal human fibroblasts, HeLa cervical carcinoma (carries HPV E6 protein, leading to p53 degradation), U2OS osteosarcoma, and EBV-positive IARC 171 lymphoblastoid cell line. […] In addition, mouse p53 null J3D T-cell lymphoma line was used.

Saos-2-His-273 cells [7] = assay: Colony formation assay, Saos-2-His-273; type: cell-based, human
Description: Colonies were stained with Giemsa and counted 14 days after seeding.
The cells were Giemsa stained and scored for the appearance of colonies after 14 days.

[8] = system: MDM2 and p21 in HCT 116 colon carcinoma cells (wild type p53); assay: Western blot of MDM2 and p21, HCT 116; type: cell-based, human
[9] = system: p53-responsive PG-luciferase reporter in Saos-2-His-273 cells; assay: PG-luciferase p53 reporter assay in Saos-2-His-273; type: cell-based, human
Method: Transactivation assays using p53-responsive promoter constructs linked to the luciferase reporter gene (PG-luc) were performed by the Dual Luciferase Reporter Assay System (Promega) according to the manufacturer. […] A luciferase activity was assayed 1; 3.5 and 15 hours post-treatment.
Whereas compound MIRA-1 stimulated luciferase expression 2-fold already after 3.5 hours, 2-fold induction by compound PRIMA-I was achieved only after 15 hours of treatment.

Row | Structure (SMILES) | induction of MDM2 and p21 [1] | EGFP reporter expression ([2]; 5 μM for 24 hours) | induction of apoptosis [3] | mutant p53 proteins with restored specific DNA binding [4] | time to apoptosis induction after treatment (Saos-2-His-273 cells [5]) [h] | p53 dependence of apoptosis induction (Saos-2-His-273 cells [5]) | growth suppression by p53 status [6] | number of colonies, of untreated control (Saos-2-His-273 cells [7]; 5 μM, colonies counted after 14 days) [%] | MDM2 and p21 protein levels [8] | stimulation of luciferase expression ([9]; after 3.5 hours) [fold] | EGFP reporter expression ([2]; cells expressing mutant p53, 24 hours) | EGFP reporter expression ([2]; presence of doxycycline (p53 off)) | doses inhibitory in a mutant p53-dependent manner (Saos-2-His-273 cells [7]; colony formation, 14 days) [µM] | induction of luciferase expression ([9]; after 15 hours of treatment) [fold]
1 | CCCOCN1C(=O)C=CC1=O [MIRA-1, 1-(propoxymethyl)-maleimide] | induced MDM2 and p21 | induction of EGFP was also observed | much less prominent as compared to Saos-2-His-273 cells | 3 out of 14 | 6 to 12 | occurred only in the presence of p53 expression | suppressed the growth of mutant p53-expressing cells more efficiently then p53 null and wild type p53 containing cells | 15 | did not cause any significant changes | 2 |  |  |  | 
2 | O=C1C2CCN(CC2)C1(CO)CO [PRIMA-1, 2,2-bis(hydroxymethyl)-1-azabicyclo[2.2.2]octan-3-one] | induced MDM2 and p21 |  | much less prominent as compared to Saos-2-His-273 cells | 13 out of 14 | 48 | occurred only in the presence of p53 expression | suppressed the growth of mutant p53-expressing cells more efficiently then p53 null and wild type p53 containing cells |  | did not cause any significant changes |  | strong induction of EGFP expression | did not express detectable levels of EGFP | 50 to 100 | 2
